From article PMC2096555 (Purinergic Signalling, 2005)
Several values for one entry are separate records, joined by “and”; a condition that tells them apart may be missing. Equal entries are not always repeated.

Experiments:
rat NTPDase2 [1] = molecular target: T1, rat NTPDase2 (Rattus norvegicus, UniProt O35795); type: biochemical
T1 sequence (O35795 1-495): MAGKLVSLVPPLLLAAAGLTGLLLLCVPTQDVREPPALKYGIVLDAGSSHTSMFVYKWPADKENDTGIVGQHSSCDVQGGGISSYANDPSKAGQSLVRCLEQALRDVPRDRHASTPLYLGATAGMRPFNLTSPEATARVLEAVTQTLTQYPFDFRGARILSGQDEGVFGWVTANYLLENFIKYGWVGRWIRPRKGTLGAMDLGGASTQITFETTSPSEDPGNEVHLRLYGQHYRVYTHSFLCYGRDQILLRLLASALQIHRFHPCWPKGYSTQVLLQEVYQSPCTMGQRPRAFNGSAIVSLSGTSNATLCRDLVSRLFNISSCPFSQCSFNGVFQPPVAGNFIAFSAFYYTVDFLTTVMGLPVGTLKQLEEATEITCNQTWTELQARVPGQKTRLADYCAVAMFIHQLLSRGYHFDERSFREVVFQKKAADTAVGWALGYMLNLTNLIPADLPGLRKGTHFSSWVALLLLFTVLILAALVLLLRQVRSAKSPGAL

rat NTPDase3 [2] = molecular target: T2, rat NTPDase3 (Rattus norvegicus, UniProt A6I415); type: biochemical
T2 sequence (A6I415 1-529): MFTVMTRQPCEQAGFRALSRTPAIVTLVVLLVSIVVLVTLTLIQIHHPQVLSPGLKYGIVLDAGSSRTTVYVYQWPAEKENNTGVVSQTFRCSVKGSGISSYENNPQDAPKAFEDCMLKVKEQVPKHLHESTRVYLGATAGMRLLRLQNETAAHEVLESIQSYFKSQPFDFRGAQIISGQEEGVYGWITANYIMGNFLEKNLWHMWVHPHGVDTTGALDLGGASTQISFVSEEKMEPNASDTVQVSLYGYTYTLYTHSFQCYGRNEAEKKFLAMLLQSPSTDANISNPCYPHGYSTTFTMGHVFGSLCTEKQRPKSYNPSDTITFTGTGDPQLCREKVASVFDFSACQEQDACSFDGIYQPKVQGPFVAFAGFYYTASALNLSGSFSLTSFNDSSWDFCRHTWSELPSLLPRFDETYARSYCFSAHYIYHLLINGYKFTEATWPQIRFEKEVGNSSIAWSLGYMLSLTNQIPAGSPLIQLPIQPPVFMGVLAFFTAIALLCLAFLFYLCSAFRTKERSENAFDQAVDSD

rat NTPDase1 [3] = molecular target: T3, rat NTPDase1 (Rattus norvegicus, UniProt P97687); type: biochemical
T3 sequence (P97687 1-511): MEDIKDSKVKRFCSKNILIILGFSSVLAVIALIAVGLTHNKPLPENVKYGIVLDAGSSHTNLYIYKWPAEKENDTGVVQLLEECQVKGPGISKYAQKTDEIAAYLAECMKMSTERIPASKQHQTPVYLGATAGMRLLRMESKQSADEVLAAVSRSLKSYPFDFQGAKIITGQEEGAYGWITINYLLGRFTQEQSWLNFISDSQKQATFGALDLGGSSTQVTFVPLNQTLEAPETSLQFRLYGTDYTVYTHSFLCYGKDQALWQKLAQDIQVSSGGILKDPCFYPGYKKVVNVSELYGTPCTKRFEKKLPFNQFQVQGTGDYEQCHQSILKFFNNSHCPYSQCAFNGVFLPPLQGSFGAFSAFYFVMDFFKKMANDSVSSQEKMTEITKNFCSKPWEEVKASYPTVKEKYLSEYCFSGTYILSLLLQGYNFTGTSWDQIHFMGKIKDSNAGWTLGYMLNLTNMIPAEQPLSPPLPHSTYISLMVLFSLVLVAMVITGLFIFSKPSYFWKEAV

[4] = system: rat superior cervical ganglionic cells; settings: at 10 µM concentration; cited from earlier work
rat NTPDase1 [5] = molecular target: T3, rat NTPDase1; type: biochemical; remark: listed apart in the source
mouse NTPDase3 = settings: read-out: Reported Km mouse NTPDase3; ATP; cited from earlier work
rat NTPDase2 [6] = molecular target: T1, rat NTPDase2; type: biochemical; remark: listed apart in the source
human NTPDase3 = settings: read-out: Reported Km human NTPDase3; ATP; respectively ref 32, 40; cited from earlier work
rat NTPDase3 [7] = molecular target: T2, rat NTPDase3; type: biochemical; remark: listed apart in the source
human NTPDase1 = settings: read-out: Reported Km human NTPDase1; ATP; cited from earlier work
mouse NTPDase1 = settings: read-out: Reported Km mouse NTPDase1; ATP; cited from earlier work
mouse NTPDase2 = settings: read-out: Reported Km mouse NTPDase2; ATP; no reference given; cited from earlier work
recombinant rat NTPDase1 = settings: read-out: Reported Km recombinant rat NTPDase1; ATP; cited from earlier work
[8] = substrate ATP, membrane preparation

Question: With OCCN(CCO)c1nc(N2CCCCC2)c2nc(N(CCO)CCO)nc(N3CCCCC3)c2n1 [Dipyridamole, dipyridamole] as the compound, how does the Ki (rat NTPDase2 [1]) read?
Answer: Its Ki is > 1000 µM.

Question: What about the Ki (rat NTPDase3 [2]) of the same compound?
Answer: Its Ki is > 1000 µM.

Question: What about the Ki (rat NTPDase1 [3]) of the same compound?
Answer: The Ki was > 1000 µM.

Question: What about the “inhibition of ATP hydrolysis” value [4] of the same compound?
Answer: Its value is “effective inhibitor”.

Question: For Cc1ccc(C(=O)Nc2ccc(S(=O)(=O)O)c3cc(S(=O)(=O)O)cc(S(=O)(=O)O)c23)cc1NC(=O)c1cccc(NC(=O)Nc2cccc(C(=O)Nc3cc(C(=O)Nc4ccc(S(=O)(=O)O)c5cc(S(=O)(=O)O)cc(S(=O)(=O)O)c45)ccc3C)c2)c1 [Suramin, suramin], which “Ki for NTPDase1 relative to NTPDase2” value (rat NTPDase1 [3]; ratio of Ki values) is on record?
Answer: Its value is “five fold higher”.

Question: Which results are given for Nc1ncnc2c1ncn2[C@@H]1O[C@H](COP(=O)(O)OP(=O)(O)OP(=O)(O)O)[C@@H](O)[C@H]1O [ATP]?
Answer: Km (rat NTPDase1 [5]; read-out: Km ± SEM NTPDase1, substrate ATP 10-1000 µM, product AMP): 76 ± 12 µM; Vmax ± SEM NTPDase1 (rat NTPDase1 [5]; [8]): 0.023 ± 0.002 μmol/min/mg protein; Km (mouse NTPDase3): 11 µM; Km (rat NTPDase2 [6]; read-out: Km ± SEM NTPDase2, substrate ATP 25-1000 µM, product ADP): 203 ± 8 µM; Vmax ± SEM NTPDase2 (rat NTPDase2 [6]; [8]): 0.021 ± 0.002 μmol/min/mg protein; Km (human NTPDase3): 75 µM and 128 µM; Km (rat NTPDase3 [7]; read-out: Km ± SEM NTPDase3, substrate ATP 25-1000 µM, product ADP): 311 ± 4 µM; Vmax ± SEM NTPDase3 (rat NTPDase3 [7]; [8]): 0.010 ± 0.001 μmol/min/mg protein; Km (human NTPDase1): 17 µM; Km (mouse NTPDase1): 12 µM; Km (mouse NTPDase2): 37 µM; Km (recombinant rat NTPDase1): 75 µM
